Measurements reported in patent US11369590B2, “PSMA binding ligand-linker conjugates and methods for using” (Purdue Research Foundation, priority 2007, dated 2022).
Read-outs that look alike come from different tables or passages of the source. *1 amine or outer side, *2 acyl side, *3 side chain or, on linkers, in order; H or OH if unused. Where a SMILES comes first, the peptide text is derived from it. Side-chain parts run from the residue outwards. [ ]: non-standard residue; d: D form. γGlu = O=C(O)[C@H](CCC(=O)[*:2])N[*:1]; Dap = NC[C@H](N)C(=O)O; Aoc = NCCCCCCCC(=O)O; CO = O=C([*:1])[*:2]

Legend:
[1] = Multiple dose toxicity in live mice; type: in vivo, mouse
Procedure: Multiple dose toxicity in live mice. SK71 was administered in 5 doses on alternate days (M, W, F, M, W). […] (See FIG. 9B)

[2] = Single dose toxicity in live mice; conditions: mouse, in vivo, single dosing
Text: Single dose toxicity in live mice. Administration of SK71 was in a single dose as indicated. […] (See FIG. 9A)

LNCaP cells [3] = assay: [3H]-Thymidine incorporation assay, toxicity to LNCaP cells in culture; type: cell-based, human; conditions: LNCaP cells pulsed 2 h, additional 66 h in fresh medium
Procedure: Evaluation of a PSMA-Targeted Therapeutic Agent in Vitro. Analysis of SK71 (FIG. 12A), SK77 (FIG. 12B), SK37 (FIG. 12C), and SK45 (FIG. 12D), toxicity to LNCaP cells in culture. LNCaP cells were pulsed for 2 h with increasing concentrations of SK71 or SK77 in the presence (▴) or absence (▪) of 100-fold molar excess PMPA. After 2× washes, cells were incubated an additional 66 h in fresh medium at 37° C. Cell viability was then analyzed using the [3H]-thymidine incorporation assay, as described herein. Data were obtained in a single experiment and error bars represent s.d. (n=3 wells per concentration).

LNCaP tumors [4] = assay: Efficacy study compared to control group and competition group; type: in vivo, mouse
Procedure: Efficacy study compared to control group and competition group. Animals were treated with (a) the conjugate SK71 administered in 5 doses on alternate days (M, W, F, M, W) at […], and compared to (b) vehicle treated animals (FIG. 10B), and to (c) animals treated with the conjugate in conjunction with PMPA. […] The competition experiments (See FIG. 10C) indicate that the successful treatment of the implanted tumor is related to selective or specific targeting of PSMA mediated delivery.

PSMA = PSMA (Homo sapiens, UniProt Q04609); conditions: PSMA ligand of formula drawing 51, R^1 as drawn; cited from earlier work
Sequence of PSMA (Q04609 whole entry, species assumed): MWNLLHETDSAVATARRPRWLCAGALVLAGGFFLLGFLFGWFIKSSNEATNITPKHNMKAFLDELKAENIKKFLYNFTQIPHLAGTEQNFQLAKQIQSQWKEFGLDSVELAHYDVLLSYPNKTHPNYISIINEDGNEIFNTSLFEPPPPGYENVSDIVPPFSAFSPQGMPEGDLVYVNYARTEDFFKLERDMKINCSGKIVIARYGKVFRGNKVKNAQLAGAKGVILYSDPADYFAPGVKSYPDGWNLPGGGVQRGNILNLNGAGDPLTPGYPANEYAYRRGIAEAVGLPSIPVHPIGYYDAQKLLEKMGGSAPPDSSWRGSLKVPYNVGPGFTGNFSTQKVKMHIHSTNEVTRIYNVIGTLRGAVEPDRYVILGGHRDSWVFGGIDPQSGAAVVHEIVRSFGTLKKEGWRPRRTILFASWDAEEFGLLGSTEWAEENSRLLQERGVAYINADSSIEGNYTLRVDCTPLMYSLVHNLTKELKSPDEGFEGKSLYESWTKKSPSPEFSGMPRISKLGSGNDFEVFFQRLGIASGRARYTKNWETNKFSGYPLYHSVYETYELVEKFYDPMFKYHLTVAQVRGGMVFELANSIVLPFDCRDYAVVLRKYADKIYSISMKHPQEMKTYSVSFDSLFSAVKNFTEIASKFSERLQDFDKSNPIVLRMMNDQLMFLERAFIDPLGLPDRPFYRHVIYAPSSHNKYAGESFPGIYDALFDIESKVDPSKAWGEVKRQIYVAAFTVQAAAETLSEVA

LNCaP tumors [5] = assay: In vivo imaging of tumors in mouse using PSMA-99mTc compounds; conditions: mice with LNCaP tumors, 4 hours after intraperitoneal injection
Procedure: In Vivo Imaging of Tumors in Mouse Using PSMA-99 mTc. When tumors reached a volume of between 500-600 mm3, 99 mTc-labeled compounds (e.g. SK28-99 mTc, SK60-99 mTc, etc) prepared as described, were administered through intraperitoneal injection […]. Four hours later, animals were euthanized and blood was taken by cardio punch and transferred to individual gamma scintigraphy vials per each animal. The imaging experiments were carried out using either a Kodak or gamma scintigraphic camera imager (FIGS. 6A, 6B, 6C, 7A, 7B and 7C). [Note: PMPA was injected 30 minutes before injecting SK28 -99 mTc.
FIGS. 6A, 6B, and 6C show images of mice with human LNCaP tumors using SK28-99 mTc (radiolabeled 14 Atom spacer).

A549 tumors = conditions: mouse, in vivo
Procedure: (§1) In Vivo Imaging of Tumors in Mouse Using dupa-99 mTc. To further establish the specificity of our DUPA conjugates for prostate cancer cells, DUPA-99 mTc was injected intraperitoneally (i.p.) into athymic nude mice bearing LNCaP tumors on their shoulders. After 4 h to allow for clearance of unbound conjugate, the distribution of the retained DUPA-99 mTc was imaged by gamma scintigraphy. […] In vivo specificity of the PSMA-targeted imaging agent was further tested by prior administration of excess PMPA to block all PSMA sites before DUPA-99 mTc administration. […] To further document this specificity, the radiotracer was also administered to two PSMA negative mouse xenograft models [A549 (a human lung cancer cell line) and KB (a human nasopharyngeal cancer cell line)], and again whole body images were taken. […] These studies thus confirm that very little DUPA-99 mTc binding occurs to sites unrelated to PSMA in vivo.
(§2) Overlay of whole-body radioimages on white light images of mice bearing LNCaP tumors that were treated with DUPA-99 mTc in the absence 7D(a, c) or presence 7D(b, d) of 100-fold molar excess PMPA. Overlay of radioimages on white light images were also obtained of mice bearing an A549 tumor 7D(e) or a KB tumor 7D(f) that were similarly treated with DUPA-99 mTc. Except in images 7D(a) and 7D(b), kidneys were shielded with lead pads. […]

KB tumors = conditions: mouse, in vivo
Procedure: as §1, §2

LNCaP tumors [6] = assay: In vivo imaging of LNCaP tumors in mouse using DUPA-99mTc
Procedure: as §1, §2

LNCaP cells [7] = conditions: 1 hour
Procedure: Quantification of PSMA Molecules on LNCaP Cells. […] Cells were rinsed three times with 1.0 mL of RPMI. Cells were lysed with tris-buffer, transferred to individual gamma scintigraphy vials, and radioactivity was counted. The plot of cell bound radioactivity verses concentration of radiolabeled compound was used to calculate number of PSMA/LNCaP cell. The radioactivity of a 30 nM sample of SK28-99 mTc (20 uL) was counted. At 4° C. (to prevent endocytosis of PSMA), the number of moles in the 30 nM sample=30 nM×20 uL=(30×10-9 mol/L)×(20×10-6 L)=6×10-13 mol.

Structure (SMILES): CCCC(=O)OCN(C(=O)[C@@H](NC(=O)[C@H]1CCCCN1C)C(C)CC)[C@H](C[C@@H](OC(C)=O)c1nc(C(=O)N[C@@H](Cc2ccc(O)cc2)C[C@H](C)C(=O)NNC(=O)OCCSSC[C@H](NC(=O)[C@H](Cc2ccccc2)NC(=O)[C@H](CC(=O)O)NC(=O)CC[C@H](NC(=O)CC[C@H](NC(=O)N[C@@H](CCC(=O)O)C(=O)O)C(=O)O)C(=O)O)C(=O)O)cs1)C(C)C (some centres unmarked) [SK71]
- visible tumors ([1]; LNCaP tumors, 2 and 4 μmol/kg groups, after 18 days of treatment): no mice in the two treated groups had visible tumors
- MTD ([1]; mouse, in vivo, multiple dosing, 5 doses on alternate days, mice): 2 µmol/kg
- MTD [2]: ~4.5 µmol/kg
- IC50 (LNCaP cells [3]): ~2 nM
- tumor size during treatment (LNCaP tumors [4]; 1 μmol/kg, 5 doses on alternate days, starting tumor size approximately 250 mm3): successive decrease in tumor size
- tumor volume after dosing (LNCaP tumors [4]; 1 μmol/kg, at the cessation of dosing): tumor volumes rebounded
- tumor response at higher dose (LNCaP tumors [4]; at least 2 μmol/kg, during the testing period): complete disappearance of the tumor

Structure (SMILES): O=C(O)CCC(NC(=O)NC(CCC(=O)O)C(=O)O)C(=O)O (centres unmarked)
- Ki (PSMA): 8 nM

Structure (SMILES): O=C(O)CCC(NC(=O)NC(CCC(=O)O)c1nnn[nH]1)C(=O)O (centres unmarked)
- Ki (PSMA): 335 nM

Structure (SMILES): N[C@@H](CNC(=O)[C@H](Cc1ccccc1)NC(=O)[C@H](Cc1ccccc1)NC(=O)CCCCCCCNC(=O)CC[C@H](NC(=O)N[C@@H](CCC(=O)O)C(=O)O)C(=O)O)C(=O)N[C@@H](CC(=O)O)C(=O)N[C@@H](CS)C(=O)O [SK28-^99mTc, metal not drawn] (H-[Dap]([Phe-Phe-Aoc-γGlu-CO-Glu])-Asp-Cys-OH)
- distribution of radioactivity (imaging) (LNCaP tumors [5]): distribution was limited to kidneys
- radioactivity in tumor (A549 tumors): no radioactivity was observed
- radioactivity in tumor (KB tumors): no radioactivity was observed
- tumor uptake after PMPA block (LNCaP tumors [6]; LNCaP tumors, prior administration of 100-fold molar excess PMPA): no DUPA-99 mTc uptake
- distribution of retained radiotracer (gamma scintigraphy) (LNCaP tumors [6]; nude mice bearing LNCaP tumors, 4 h after i.p. injection, without PMPA): accumulated mainly in the PSMA positive LNCaP tumor
- cell bound radioactivity at the saturation point (LNCaP cells [7]; 4° C.): 12 000 cpm
- cell bound radioactivity at the saturation point (LNCaP cells [7]; 37° C.): 33,000 cpm

Structure (SMILES): CC[C@@]1(OC(=O)OCCSSC[C@H](NC(=O)[C@H](CC(=O)O)NC(=O)[C@@H](N)CNC(=O)[C@H](Cc2ccccc2)NC(=O)[C@H](Cc2ccccc2)NC(=O)CCCCCCCNC(=O)CC[C@H](NC(=O)N[C@@H](CCC(=O)O)C(=O)O)C(=O)O)C(=O)O)C(=O)OCc2c1cc1n(c2=O)Cc2cc3ccccc3nc2-1 [SK45]
- IC50 (LNCaP cells [3]): ~29 nM
